We go through five compounds from patent US10858384B2, “Synthetic molecule constructs” (KODE BIOTECH LIMITED, priority 2004, dated 2020).

The nature of data set [1]: Solubility of synthetic glycolipids in hot PBS. The format is physicochemical. From the text:
In the context of this description the phrase “water soluble” means a stable, single phase system is formed when the synthetic molecule construct is contacted with water or saline (such as PBS) in the absence of organic solvents or detergents, and the term “solution” has a corresponding meaning.
For use in the transformation of cells the first criterion that synthetic glycolipids must satisfy is that they are soluble in aqueous solvents, e.g. phosphate buffered saline.
Initial tests on the molecules were to establish solubility and thus eliminate those molecules that were unsuitable for use in the transformation of cells.

The subject of data set [2] is RBCs. The data set can be described thus: Detectable transformation ability of synthetic glycolipids (agglutination). The format is cell-based. The conditions noted are these: agglutination with the appropriate antibody. From the text: The synthetic glycolipid must also be able to insert into the membrane and be recognisable to the appropriate antibody for transformation to be detected by agglutination. Initial tests on the molecules were to establish solubility and thus eliminate those molecules that were unsuitable for use in the transformation of cells.

The test system of data set [3] is RBCs. The data set can be described thus: Evaluation of insertion of different lipid tails by agglutination with the relevant antisera. Further details: scale not given here. The class given is cell-based. The text has this:
Transformation of RBCs with synthetic glycolipids with different lipid tails was first evaluated (Tables 22 and 24).

For data set [4], the system named is group O red blood cells (RBCs). The data set can be described thus: Tube serology of group O RBCs transformed at 37° C. with synthetic glycolipids. The format is cell-based, human. Further details: Albaclone anti-A, Tube / Bioclone anti-A, Tube: scale not given here. The protocol:
(§1) Washed packed group O red blood cells (RBCs) (3 parts by volume) and the synthetic glycolipid solution (1 part by volume, varying concentrations) were added to an eppendorf tube. The tube was incubated in a 37° C. waterbath for one hour, mixing every 15 minutes. […]
(§2) Tube serology and Diamed gel-card results for RBCs transformed with the different synthetic molecule constructs are provided in Table 38. Results for the stability of the RBCs transformed with the different synthetic glycolipids at different concentrations are provided in Tables 39 to 44.

Data set [5] concerns group O red blood cells (RBCs). The data set can be described thus: Diamed gel-card agglutination of group O RBCs transformed at 37° C. with synthetic glycolipids. The format is cell-based, human. Also noted: scale not given here. As to the method: as §1, §2
Data set [6] has as its system Mouse RBCs. The data set can be described thus: Tube serology of murine RBCs transformed with H-antigen synthetic glycolipids. The conditions noted are these: for H Antisera IgM, Tube: mouse RBCs; for Agglutination, UEA-1: tube serology. The format is cell-based. As to the method:
Washed packed mouse RBCs (3 parts by volume) and the synthetic glycolipid solutions (1 part by volume of varying concentrations) were added to an eppendorf tube. The tube was incubated in a 37° C. waterbath for one hour, mixing every 15 minutes. The transformed RBCs were washed 3× with PBS and then suspended in Cellstab™ at the appropriate concentration for serology testing.
Murine RBCs were washed 3× in 1× PBS. 30 μl of packed RBCs were combined with 30 μl of Hdi-sp-Ad-DOPE (VIII), and 30 μl of packed RBCs were combined with 30 μl Galβ-sp-Ad-DOPE (IX), respectively. Both synthetic molecule constructs were at a concentration of 1.0 mg/ml. 30 μl of 1× PBS was added to 30 μl of packed RBCs to act as the control group. Cells were incubated for 90 minutes in a 37° C. shaking water-bath. RBCs were washed 3× in 1× PBS.
Three groups of packed RBCs were incubated with an equal volume of lectin UEA-1 for 30 minutes at room temperature. The lectin was prepared in 1× PBS at a concentration of 0.1 mg/ml. 50 μl of a 3% cell suspension was spun for 15 seconds in an Immunofuge at low speed. Results were read by tube serology.

Data set [7] relates to red blood cells. The data set can be described thus: Association of KODE-fluorescein with cell membranes (fluorescence microscope). The class given is cell-based. The text has this:
FIG. 20. Red blood cells following contact with a synthetic molecule construct (XVI) viewed with a fluorescence microscope at 470 nm under 250× magnification.
A medium to strongly fluorescing cell was considered to indicate a uniform distribution of the molecule across the cell membrane (FIG. 20).

Like-named read-outs stand apart in the source and are kept apart here.

For the compound `CCCCCCCCCCCCCCCCCC(=O)OC[C@H](COP(=O)(O)OCCNC(=O)CCCCC(=O)NCCCO[C@@H]1O[C@H](CO)[C@H](O)[C@H](O[C@H]2O[C@H](CO)[C@H](O)[C@H](O)[C@H]2NC(C)=O)[C@H]1O[C@@H]1O[C@@H](C)[C@@H](O)[C@@H](O)[C@@H]1O)OC(=O)CCCCCCCCCCCCCCCCC` [Atri-sp-Ad-DSPE (III)], the Water solubility result in data set [1] (hot PBS) is given as “Yes”. Moreover, the Detectable transformation ability entry in data set [2] is given as “Yes”. The Agglutination score is given as 0 in data set [3] (10 μg/mL, Alba anti-A, first series); 0 in data set [3] (10 μg/mL, Bio anti-A, first series); 0 in data set [3] (20 μg/mL, Alba anti-A, first series); 0 in data set [3] (20 μg/mL, Bio anti-A, first series); 0 in data set [3] (30 μg/mL, Alba anti-A, first series); 0 in data set [3] (30 μg/mL, Bio anti-A, first series). Besides, the Agglutination score worked out at 0 in data set [3] (40 μg/mL, Alba anti-A, first series); 0 in data set [3] (40 μg/mL, Bio anti-A, first series); 0 in data set [3] (50 μg/mL, Alba anti-A, first series); 0 in data set [3] (50 μg/mL, Bio anti-A, first series); 0 in data set [3] (1000 μg/mL, DBA). The “Albaclone anti-A, Tube” value in data set [4] (0.01 mg/mL), in data set [4] (0.02 mg/mL), in data set [4] (0.03 mg/mL), in data set [4] (0.04 mg/mL) and in data set [4] (0.05 mg/mL) was 0 in each case. Besides, the “Bioclone anti-A, Tube” value in data set [4] (0.01 mg/mL), in data set [4] (0.02 mg/mL), in data set [4] (0.03 mg/mL), in data set [4] (0.04 mg/mL) and in data set [4] (0.05 mg/mL) was 0 each time. For the same compound, the “Albaclone anti-A, Diamed” value in data set [5] (0.01 mg/mL), in data set [5] (0.05 mg/mL), in data set [5] (0.1 mg/mL) and in data set [5] (0.25 mg/mL) was 0 each time. The “Bioclone anti-A, Diamed” value in data set [5] (0.01 mg/mL), in data set [5] (0.05 mg/mL), in data set [5] (0.1 mg/mL) and in data set [5] (0.25 mg/mL) was 0 in each case.
In the case of `CCCCCCCC/C=C\CCCCCCCC(=O)OC[C@H](COP(=O)(O)OCCNC(=O)CCCCC(=O)NCCCO[C@@H]1O[C@H](CO)[C@H](O)[C@H](O)[C@H]1O)OC(=O)CCCCCCC/C=C\CCCCCCCC` [Galβ-sp-Ad-DOPE (IX)], the Water solubility result in data set [1] is “Yes”. In data set [2], the Detectable transformation ability entry was “lack of detectable transformation and No”. The “H Antisera IgM, Tube” value in data set [6] (0.01 mg/mL), in data set [6] (0.05 mg/mL), in data set [6] (0.1 mg/mL) and in data set [6] (0.25 mg/mL) was 0 throughout.
Turning to `CCCCCCCC/C=C\CCCCCCCC(=O)OC[C@H](COP(=O)(O)OCCNC(=O)CCCCC(=O)NCCCO[C@@H]1O[C@H](CO)[C@H](O)[C@H](O)[C@H]1O)OC(=O)CCCCCCC/C=C\CCCCCCCC` [Galβ], the “Agglutination, UEA-1” value in data set [6] (Murine RBC, 1 mg/ml) amounted to 0.
For `CCCCCCCC/C=C\CCCCCCCC(=O)OC[C@H](COP(=O)(O)OCCNC(=O)CCCCC(=O)NCCCO[C@@H]1O[C@H](CO)[C@H](O)[C@H](O)[C@H]1O[C@@H]1O[C@@H](C)[C@@H](O)[C@@H](O)[C@@H]1O)OC(=O)CCCCCCC/C=C\CCCCCCCC` [Hdi-sp-Ad-DOPE (VIII)], the Water solubility result in data set [1] (hot PBS) is recorded as “Yes”. Besides, the Detectable transformation ability entry in data set [2] is “lack of detectable transformation and No”. In addition, the “H Antisera IgM, Tube” value in data set [6] (0.01 mg/mL), in data set [6] (0.05 mg/mL), in data set [6] (0.1 mg/mL) and in data set [6] (0.25 mg/mL) was 0 in each case. For the same compound, in data set [6] (1.0 mg/ml, 37° C. 90 minutes), the “Detection of transformed murine RBCs by anti-H IgM and UEA-1” value is recorded as “neither anti-H IgM nor UEA-1 detects”. The “Agglutination, Mouse IgM^H” value in data set [6] (Murine RBC, 1 mg/ml) is on record as 0. The “Agglutination, UEA-1” value in data set [6] (Murine RBC, 1 mg/ml) was 0.
As to `CCCCCCCCC=CCCCCCCCC(=O)OCC(COP(=O)(O)OCCNC(=O)CCCCC(=O)NCCCCCNC(=S)Nc1ccc(-c2c3ccc(=O)cc-3oc3cc(O)ccc23)c(C(=O)O)c1)OC(=O)CCCCCCCC=CCCCCCCCC` (centres unmarked) [KODE-fluorescein (I)], in data set [7], the “Association with the membrane of red blood cells” value is given as “readily associates” and the “Concentration of dispersion at which insertion is observed” value was “greater than 0.1 mg/ml”. For the same compound, the “Period for which incorporation and distribution appears stable” value in data set [7] (cells stored in the dark) is listed as “at least 40 days”.
